Measured values reported in the supplement of paper PMC7840683.
± gives the standard deviation of the averaged measurements.

System: HepaRG
Test: LDH release cytotoxicity, % of total lysis control; higher = more cytotoxic
Details: 48 h
In short: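 Single-lot HepaRG cells in collagen I-coated 96-well plates were treated for 48 h in serum-free induction medium containing 0.5% DMSO with test chemicals in eight-point half-log series up to 100 µM. For total lysis, wells received 0.1% Triton X. LDH in 50 µL spent medium was assayed by resorufin fluorescence with CytoTox-ONE. Percent cytotoxicity was normalized to the on-plate vehicle and total lysis controls, with duplicates averaged.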

With `COc1cc(OC)nc(NC(=O)NS(=O)(=O)c2ncccc2OCC(F)(F)F)n1` [Trifloxysulfuron-sodium] the LDH release cytotoxicity (0.03162 µM) was -1.39 ± 0.15%, the LDH release cytotoxicity (0.1 µM) was -0.662 ± 0.68% and the LDH release cytotoxicity (0.3162278 µM) was -1.7 ± 1.1%. For the same molecule, the LDH release cytotoxicity (1 µM) was -1.75 ± 1.3%, the LDH release cytotoxicity (3.16228 µM) was -1.37 ± 0.17% and the LDH release cytotoxicity (10 µM) was -1.12 ± 0.68%. For the same molecule, the LDH release cytotoxicity (31.6228 µM) was -1.62 ± 0.26% and the LDH release cytotoxicity (100 µM) was 0.885 ± 0.33%.

`CN(C)C(=S)[S-].CN(C)C(=S)[S-].[Zn+2]` [Ziram] showed an LDH release cytotoxicity (0.03162 µM) of -1.6 ± 0.3%, an LDH release cytotoxicity (0.1 µM) of -1.5 ± 0.095% and an LDH release cytotoxicity (0.3162278 µM) of -1.92 ± 1.4%. For the same molecule, the LDH release cytotoxicity (1 µM) was -1.52 ± 0.12%, the LDH release cytotoxicity (3.16228 µM) was -1.1 ± 0.12% and the LDH release cytotoxicity (10 µM) was -0.764 ± 0.98%. The LDH release cytotoxicity (31.6228 µM) was 37.6 ± 4% and the LDH release cytotoxicity (100 µM) was 46.8 ± 1.6%.

In the case of `CCN(Cc1cccnc1)C(=O)c1cccc(Cl)c1C1(C)C(=O)N(Cc2ccc(OC)cc2OC)c2ccc(Cl)cc21` (centres undefined), the LDH release cytotoxicity (0.02988 µM) is reported as -0.884 ± 0.23%, the LDH release cytotoxicity (0.0945 µM) is reported as -1.62 ± 0.57% and the LDH release cytotoxicity (0.298835 µM) is reported as -1.35 ± 0.017%. For the same molecule, the LDH release cytotoxicity (0.945 µM) was -1.68 ± 0.046%, the LDH release cytotoxicity (2.98835 µM) was -2.31 ± 0.18% and the LDH release cytotoxicity (9.45 µM) was 1.33 ± 0.092%. For the same molecule, the LDH release cytotoxicity (29.8835 µM) was 7.13 ± 1.4% and the LDH release cytotoxicity (94.5 µM) was 11.6 ± 0.98%.

`S=C([S-])NCCNC(=S)[S-].S=C([S-])NCCNC(=S)[S-].[Mn+2].[Zn+2]` [Mancozeb] showed an LDH release cytotoxicity (0.01581 µM) of -1.38 ± 0.48%, an LDH release cytotoxicity (0.05 µM) of -1.29 ± 0.95% and an LDH release cytotoxicity (0.1581139 µM) of -2.2 ± 0.12%. For the same molecule, the LDH release cytotoxicity (0.5 µM) was -0.828 ± 0.04%, the LDH release cytotoxicity (1.5811388 µM) was 30.3 ± 1.4% and the LDH release cytotoxicity (5 µM) was 68.2 ± 0.83%. It also gave an LDH release cytotoxicity (15.8114 µM) of 72.55 ± 0.27% and an LDH release cytotoxicity (50 µM) of 77.11 ± 0.33%.

In the case of `N#CSCSc1nc2ccccc2s1` [2-(Thiocyanomethylthio)benzothiazole], the LDH release cytotoxicity (0.03162 µM) is reported as -0.587 ± 0.32%, the LDH release cytotoxicity (0.1 µM) is reported as -0.847 ± 0.58% and the LDH release cytotoxicity (0.3162278 µM) is reported as -0.155 ± 0.13%. For the same molecule, the LDH release cytotoxicity (1 µM) was -0.646 ± 0.61%, the LDH release cytotoxicity (3.16228 µM) was 0.021 ± 0.2% and the LDH release cytotoxicity (10 µM) was -0.312 ± 0.2%. For the same molecule, the LDH release cytotoxicity (31.6228 µM) was -0.754 ± 0.77% and the LDH release cytotoxicity (100 µM) was 1.03 ± 0.038%.

In the case of `CCc1ccc(O)c(C(C)(C)C)c1` [2-tert-Butyl-4-ethylphenol], the LDH release cytotoxicity (0.03162 µM) is reported as -1.09 ± 0.39%, the LDH release cytotoxicity (0.1 µM) is reported as -1.23 ± 0.81% and the LDH release cytotoxicity (0.3162278 µM) is reported as -1.36 ± 0.88%. It also gave an LDH release cytotoxicity (1 µM) of -2.09 ± 0.78%, an LDH release cytotoxicity (3.16228 µM) of -0.936 ± 0.3% and an LDH release cytotoxicity (10 µM) of 0.529 ± 0.44%. It also gave an LDH release cytotoxicity (31.6228 µM) of -0.602 ± 0.34% and an LDH release cytotoxicity (100 µM) of 0.703 ± 0.44%.

Work on `O=C(NC(Cc1ccccc1)C(O)C(=O)N1CC(O)C(O)C1)c1cc2cc(Cl)ccc2[nH]1` (centres undefined) [Ingliforib] yielded an LDH release cytotoxicity (0.03162 µM) of -1.12 ± 1.5%, an LDH release cytotoxicity (0.1 µM) of -2 ± 0.27% and an LDH release cytotoxicity (0.3162278 µM) of -1.41 ± 1.2%. It also gave an LDH release cytotoxicity (1 µM) of -0.89 ± 0.66%, an LDH release cytotoxicity (3.16228 µM) of -0.718 ± 0.6% and an LDH release cytotoxicity (10 µM) of -0.896 ± 0.48%. It also gave an LDH release cytotoxicity (31.6228 µM) of -1.06 ± 0.19% and an LDH release cytotoxicity (100 µM) of 8.47 ± 1.3%.

For `O=C(O)c1ccc([N+](=O)[O-])cc1` [4-Nitrobenzoic acid], the LDH release cytotoxicity (0.03162 µM) was -2.11 ± 0.46%, the LDH release cytotoxicity (0.1 µM) was -1.22 ± 0.03% and the LDH release cytotoxicity (0.3162278 µM) was -0.728 ± 0.58%. It also gave an LDH release cytotoxicity (1 µM) of -0.721 ± 1.3%, an LDH release cytotoxicity (3.16228 µM) of -1.62 ± 0.43% and an LDH release cytotoxicity (10 µM) of -0.906 ± 0.7%. It also gave an LDH release cytotoxicity (31.6228 µM) of -0.392 ± 0.1% and an LDH release cytotoxicity (100 µM) of 1.32 ± 1.1%.

`CC(=O)NC1(c2cccc(F)c2)CCN(CCC2(c3ccc(Cl)c(Cl)c3)CN(c3ccccc3)C(=O)CO2)CC1` (centres undefined) gave an LDH release cytotoxicity (0.03162 µM) of -0.672 ± 1.2%, an LDH release cytotoxicity (0.1 µM) of -0.672 ± 0.82% and an LDH release cytotoxicity (0.3162278 µM) of -0.643 ± 0.17%. The LDH release cytotoxicity (1 µM) was -0.552 ± 0.44%, the LDH release cytotoxicity (3.16228 µM) was -0.767 ± 0.35% and the LDH release cytotoxicity (10 µM) was -0.38 ± 0.15%. The LDH release cytotoxicity (31.6228 µM) was 0.499 ± 0.37% and the LDH release cytotoxicity (100 µM) was 3.41 ± 1.2%.

With `Clc1ccc(C(c2ccccc2Cl)C(Cl)(Cl)Cl)cc1` (centres undefined) [o,p'-DDT] the LDH release cytotoxicity (0.03162 µM) was 0.598 ± 0.81%, the LDH release cytotoxicity (0.1 µM) was -1.38 ± 0.27% and the LDH release cytotoxicity (0.3162278 µM) was -0.542 ± 0.35%. It also gave an LDH release cytotoxicity (1 µM) of -0.286 ± 0.43%, an LDH release cytotoxicity (3.16228 µM) of 2.06 ± 0.81% and an LDH release cytotoxicity (10 µM) of 10.3 ± 2.1%. For the same molecule, the LDH release cytotoxicity (31.6228 µM) was 12.9 ± 0.91% and the LDH release cytotoxicity (100 µM) was 8.46 ± 0.97%.

Molecule `C#CCOS(=O)OC1CCCCC1Oc1ccc(C(C)(C)C)cc1` (centres undefined) [Propargite] has an LDH release cytotoxicity (0.03162 µM) of -0.16 ± 0.35%, an LDH release cytotoxicity (0.1 µM) of -0.456 ± 1.3% and an LDH release cytotoxicity (0.3162278 µM) of -0.537 ± 0.23%. The LDH release cytotoxicity (1 µM) was 0.246 ± 0.3%, the LDH release cytotoxicity (3.16228 µM) was -0.49 ± 0.87% and the LDH release cytotoxicity (10 µM) was -0.575 ± 0.68%. It also gave an LDH release cytotoxicity (31.6228 µM) of 62.8 ± 4% and an LDH release cytotoxicity (100 µM) of 83.83 ± 0.65%.

With `OC(c1ccc(Cl)cc1)(c1ccc(Cl)cc1)C(Cl)(Cl)Cl` [Dicofol] the LDH release cytotoxicity (0.03162 µM) was -4.47 ± 0.11%, the LDH release cytotoxicity (0.1 µM) was -4.19 ± 0.15% and the LDH release cytotoxicity (0.3162278 µM) was -3.36 ± 1.2%. It also gave an LDH release cytotoxicity (1 µM) of -3.88 ± 0.76%, an LDH release cytotoxicity (3.16228 µM) of -3.71 ± 1.1% and an LDH release cytotoxicity (10 µM) of -3.02 ± 0.35%. It also gave an LDH release cytotoxicity (31.6228 µM) of -3.41 ± 0.081% and an LDH release cytotoxicity (100 µM) of -0.0654 ± 3%.

With `CC(=O)CC(C)(C)O` [Diacetone alcohol] the LDH release cytotoxicity (0.016602 µM) was -0.631 ± 2.5%, the LDH release cytotoxicity (0.0525 µM) was 0.0827 ± 1.3% and the LDH release cytotoxicity (0.16602 µM) was -0.266 ± 1.6%. For the same molecule, the LDH release cytotoxicity (0.525 µM) was 0.0034 ± 1.3%, the LDH release cytotoxicity (1.660196 µM) was -0.934 ± 0.13% and the LDH release cytotoxicity (5.25 µM) was -1.02 ± 0.65%. The LDH release cytotoxicity (16.602 µM) was -0.505 ± 0.51% and the LDH release cytotoxicity (52.5 µM) was -2.05 ± 3%.
